Results published in patent US20230382926A1, “COMPOUNDS AND USES THEREOF” (The University of The West Indies, priority 2022, published 2023).

Experiments:
Assay in all cases: Rescue concentration, modified checkerboard MIC adjuvant assay
Assay type in all cases: cell-based
[1] = tested on: Enterococcus faecalis ATCC 51299; settings: E. faecalis ATCC 51299
Experimental: (§1) Reference microorganisms as well as clinical strains used to evaluate the antimicrobial adjuvant properties of SP-6azaBIM 125 and SP-6azaBIM 136 are listed in Table 3. Clinical strains of bacteria were kindly provided by the Faculty of Medical Sciences, UWI, St. Augustine, Trinidad. All bacterial cultures were cryopreserved in 30% glycerol/Brain Heart Infusion (BHI) at −80° C. Cultures were revived on BHI agar (Oxoid Ltd, England) and maintained at 4° C. until needed.
(§2) Prior to each experiment, cultures were streaked onto clean BHI agar plates and incubated at 35° C. for 24 hours. Colonies of the respective cultures were selected and inoculated in phosphate buffer saline (pH 7.5) to a 0.5 McFarland turbidity standard (equivalent to 10^8 CFU mL^−1). For inhibitory studies the bacterial suspensions were diluted 1:100 in cation-adjusted Mueller Hinton Broth (ca-MHB) (Oxoid Ltd, England). Fastidious bacteria including Streptococcus pneumoniae, Haemophilus infuenzae and Clostridium difficile were maintained on BHI agar with 5% defibrinated sheep blood and diluted in ca-MHB with 5% defibrinated sheep blood.
(§3) Antibiotic powders used in this study were purchased from Sigma Aldrich Ltd. (WI, USA). Antibiotic stock solutions were made at 50 mg mL^−1 according to Andrews (2001) and working solutions were prepared 24 h before use and stored at 4° C.
(§4) HCl salts of the of the SP-azaBIM test compounds were prepared prior to testing and stored at 4° C. Working preparations of each compound were made to 1 mg/mL in sterile deionised water.
(§5) The antibiotic adjuvant activity of the SPazaBIMs were evaluated in combination with representative antibiotics (representing 13 antibiotic classes) against the 19 pathogens strains listed in Table 3. To assess the adjuvant properties of the SP-azaBIM molecules, a modified checkerboard minimum inhibitory concentration assay was used. A fixed concentration of the respective antibiotic (susceptible breakpoint concentration) was mixed with a twofold dilution series of the test SP-azaBIM (FIG. 1). This was to determine the concentration of SP-azaBIM needed potentiate the antibiotic at a clinically susceptible breakpoint concentration. Antibiotic susceptible breakpoint concentrations for the respective bacteria were determined using Clinical Laboratory Standards Institute (CLSI) criteria M100 ED31.
(§6) In this study, only those antibiotics to which the bacterial was classed as resistant were included in the adjuvant assays. In this assay we recorded the rescue concentration of the SP-BIM for a respective antibiotic. The rescue concentration was defined as the concentration of the adjuvant that reduces the minimum inhibitory concentration (MIC) of an antibiotic to the susceptibility breakpoint.
(§7) Immediately prior to testing, the respective antibiotic and SP-azaBIM was dissolved in sterile deionised water at 20× the required test concentration. Each microtiter well was then inoculated with 180 μl of bacterial inoculum of 10^6 CFU/ml in ca-MHB, and 10 μl each if the antibiotic and SP-azaBIM was added to the plates. These plates were then incubated at 35° C. for 24 h under aerobic conditions. A similar method was followed for the fastidious pathogens except that they were cultured in ca-MHB with 5% sheep blood and 5% CO2.
(§8) Bacterial growth was visually inspected after the incubation period and the rescue concentration of the test SP-azaBIM was determined as the lowest concentration of the compound needed to reduce bacterial growth by 99.99% at the susceptible breakpoint concentration of the antibiotic. For example, CLSI states that Pseudomonas aeruginosa is susceptible to the Imipenem if the MIC is ≤2 μg mL^−1. If the bacteria can tolerate this concentration in vitro, then the bacteria has an intermediate or absolute resistance toward that antibiotic. […]

[2] = tested on: Stenotrophomonas maltophilia MDR 7785; settings: S. maltophilia MDR 7785
Experimental: as §1, §2, §3, §4, §5, §6, §7, §8

[3] = tested on: Acinetobacter baumannii clinical isolate 9978; settings: A. baumannii clinical isolate 9978
Experimental: as §1, §2, §3, §4, §5, §6, §7, §8

[4] = tested on: Escherichia coli ATCC 35150; settings: E. coli ATCC 35150
Experimental: as §1, §2, §3, §4, §5, §6, §7, §8

[5] = tested on: Klebsiella pneumoniae ATCC BAA-2814; settings: K. pneumoniae ATCC BAA-2814
Experimental: as §1, §2, §3, §4, §5, §6, §7, §8

[6] = tested on: Staphylococcus aureus ATCC BAA-2312; settings: S. aureus ATCC BAA-2312
Experimental: as §1, §2, §3, §4, §5, §6, §7, §8

[7] = tested on: Streptococcus pneumoniae ATCC 49619; settings: S. pneumoniae ATCC 49619
Experimental: as §1, §2, §3, §4, §5, §6, §7, §8

[8] = tested on: Enterobacter cloacae ATCC BAA-1143; settings: E. cloacae ATCC BAA-1143
Experimental: as §1, §2, §3, §4, §5, §6, §7, §8

[9] = Amp at susceptible breakpoint 8 μg mL^−1
[10] = Chl at susceptible breakpoint 8 μg mL^−1
[11] = Dox at susceptible breakpoint 4 μg mL^−1
[12] = Tri at susceptible breakpoint 8 μg mL^−1
[13] = Cef at susceptible breakpoint 8 μg mL^−1
[14] = Ceph at susceptible breakpoint 8 μg mL^−1
[15] = Gen at susceptible breakpoint 4 μg mL^−1
[16] = Imi at susceptible breakpoint 2 μg mL^−1
[17] = Mero at susceptible breakpoint 2 μg mL^−1
[18] = Amox at susceptible breakpoint 8 μg mL^−1
[19] = Col at susceptible breakpoint 8 μg mL^−1
[20] = Imi at susceptible breakpoint 1 μg mL^−1
[21] = Azi at susceptible breakpoint 16 μg mL^−1
[22] = Tet at susceptible breakpoint 4 μg mL^−1

Brc1ccc(C(c2c[nH]c3cnccc23)c2c[nH]c3cnccc23)cc1 [SP-6azaBIM 125, 3,3′-((4-bromophenyl)methylene)bis(1H-pyrrolo[2,3-c]pyridine)]
Rescue concentration, Amp (8) [1, 9]: >128 µg/mL
Rescue concentration, Chl (8) [1, 10]: >128 µg/mL
Rescue concentration, Dox (4) [1, 11]: >128 µg/mL
Rescue concentration, Ery (0.5) ([1]; Ery at susceptible breakpoint 0.5 μg mL^−1): >128 µg/mL
Rescue concentration, Tri (8) [1, 12]: >128 µg/mL
Rescue concentration, Van (4) ([1]; Van at susceptible breakpoint 4 μg mL^−1): >128 µg/mL
Rescue concentration, Cef (8) [2, 13]: 8 µg/mL
Rescue concentration, Ceph (8) [2, 14]: 8 µg/mL
Rescue concentration, Chl (8) [2, 10]: 4 µg/mL
Rescue concentration, Cip (2) ([2]; Cip at susceptible breakpoint 2 μg mL^−1): 2 µg/mL
Rescue concentration, Gen (4) [2, 15]: 8 µg/mL
Rescue concentration, Imi (2) [2, 16]: 16 µg/mL
Rescue concentration, Mero (2) [2, 17]: 4 µg/mL
Rescue concentration, Tri (2) ([2]; Tri at susceptible breakpoint 2 μg mL^−1): 64 µg/mL
Rescue concentration, Amox (8) [3, 18]: 16 µg/mL
Rescue concentration, Cef (8) [3, 13]: 2 µg/mL
Rescue concentration, Col (2) ([3]; Col at susceptible breakpoint 2 μg mL^−1): 4 µg/mL
Rescue concentration, Gen (4) [3, 15]: 2 µg/mL
Rescue concentration, Imi (2) [3, 16]: 4 µg/mL
Rescue concentration, Mero (2) [3, 17]: 8 µg/mL
Rescue concentration, Pol B (2) ([3]; Pol B at susceptible breakpoint 2 μg mL^−1): 16 µg/mL
Rescue concentration, Cip (0.25) ([4]; Cip at susceptible breakpoint 0.25 μg mL^−1): 8 µg/mL
Rescue concentration, Col (8) [4, 19]: 2 µg/mL
Rescue concentration, Dox (4) [4, 11]: 32 µg/mL
Rescue concentration, Imi (1) [4, 20]: 4 µg/mL
Rescue concentration, Amox (8) [5, 18]: 4 µg/mL
Rescue concentration, Amp (8) [5, 9]: 16 µg/mL
Rescue concentration, Aze (4) ([5]; Aze at susceptible breakpoint 4 μg mL^−1): 4 µg/mL
Rescue concentration, Azi (16) [5, 21]: 32 µg/mL
Rescue concentration, Cef (16) ([5]; Cef at susceptible breakpoint 16 μg mL^−1): 16 µg/mL
Rescue concentration, Ceph (8) [5, 14]: 32 µg/mL
Rescue concentration, Chl (8) [5, 10]: 32 µg/mL
Rescue concentration, Col (8) [5, 19]: 4 µg/mL
Rescue concentration, Dox (4) [5, 11]: 8 µg/mL
Rescue concentration, Gen (4) [5, 15]: 16 µg/mL
Rescue concentration, Imi (1) [5, 20]: 2 µg/mL
Rescue concentration, Tet (4) [5, 22]: 32 µg/mL
Rescue concentration, Azi (2) ([6]; Azi at susceptible breakpoint 2 μg mL^−1): >128 µg/mL
Rescue concentration, Gen (4) [6, 15]: 64 µg/mL
Rescue concentration, Pen (0.12) ([6]; Pen at susceptible breakpoint 0.12 μg mL^−1): >128 µg/mL
Rescue concentration, Tri (8) [6, 12]: >128 µg/mL
Rescue concentration, Van (2) ([6]; Van at susceptible breakpoint 2 μg mL^−1): >128 µg/mL
Rescue concentration, Amox (2) ([7]; Amox at susceptible breakpoint 2 μg mL^−1): >128 µg/mL
Rescue concentration, Ery (0.25) ([7]; Ery at susceptible breakpoint 0.25 μg mL^−1): >128 µg/mL
Rescue concentration, Imi (0.12) ([7]; Imi at susceptible breakpoint 0.12 μg mL^−1): >128 µg/mL
Rescue concentration, Amp (8) [8, 9]: 32 µg/mL
Rescue concentration, Azi (16) [8, 21]: >128 µg/mL
Rescue concentration, Ceph (8) [8, 14]: >128 µg/mL
Rescue concentration, Chl (8) [8, 10]: >128 µg/mL
Rescue concentration, Col (8) [8, 19]: >128 µg/mL
Rescue concentration, Dox (4) [8, 11]: >128 µg/mL
Rescue concentration, Gen (4) [8, 15]: >128 µg/mL
Rescue concentration, Imi (1) [8, 20]: >128 µg/mL
Rescue concentration, Tet (4) [8, 22]: >128 µg/mL
